# Experimental data as given in patent US10377770B2 (Novartis AG, priority 2015, dated 2019).
# Target: C-Raf FL (full length CRAF with Y340E and Y341E activating mutations, co-expressed with h14-3-3 zeta) (Homo sapiens (Human), UniProt P04049, Y340E/Y341E)
# Experiment: In vitro Raf activity determination, AlphaScreen p-MEK readout, c-Raf (C-Raf FL)
# Type: biochemical
# Conditions: c-Raf approximately 4 nM, ATP 1 μM, pre-incubation 60 minutes, reaction 1 hour
# Summary of the method: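 Full-length C-Raf (~4 nM) pre-incubated 60 min at room temperature with compound and kinase-dead biotinylated MEK1 (~10 nM) in Tris pH 7.5, 15 mM MgCl2, BSA, DTT. Reaction started with 1 μM ATP and run 1 h at room temperature. Phospho-MEK detected by AlphaScreen with anti-p-MEK antibody.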
# Sequence of C-Raf FL (full length CRAF with Y340E and Y341E activating mutations, co-expressed with h14-3-3 zeta) (P04049 whole entry Y340E/Y341E): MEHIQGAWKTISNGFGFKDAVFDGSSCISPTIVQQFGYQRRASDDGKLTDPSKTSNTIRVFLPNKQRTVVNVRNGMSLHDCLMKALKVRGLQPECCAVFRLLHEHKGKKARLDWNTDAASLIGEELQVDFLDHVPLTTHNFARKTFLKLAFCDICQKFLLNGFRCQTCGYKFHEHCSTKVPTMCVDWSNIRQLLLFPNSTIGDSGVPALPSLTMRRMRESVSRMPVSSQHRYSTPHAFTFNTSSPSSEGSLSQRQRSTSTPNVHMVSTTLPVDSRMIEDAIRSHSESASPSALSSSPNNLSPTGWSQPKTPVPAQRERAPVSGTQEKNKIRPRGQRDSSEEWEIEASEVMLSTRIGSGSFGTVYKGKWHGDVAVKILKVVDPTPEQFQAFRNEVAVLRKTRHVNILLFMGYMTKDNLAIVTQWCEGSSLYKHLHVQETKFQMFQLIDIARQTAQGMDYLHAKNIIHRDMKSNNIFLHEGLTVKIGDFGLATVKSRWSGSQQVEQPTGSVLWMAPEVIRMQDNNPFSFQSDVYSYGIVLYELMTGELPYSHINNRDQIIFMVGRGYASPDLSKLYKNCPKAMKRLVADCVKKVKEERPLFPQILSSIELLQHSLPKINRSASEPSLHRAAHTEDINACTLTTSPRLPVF
# Sequence of C-Raf FL (full length CRAF with Y340E and Y341E activating mutations, co-expressed with h14-3-3 zeta) (P63104 whole entry partner): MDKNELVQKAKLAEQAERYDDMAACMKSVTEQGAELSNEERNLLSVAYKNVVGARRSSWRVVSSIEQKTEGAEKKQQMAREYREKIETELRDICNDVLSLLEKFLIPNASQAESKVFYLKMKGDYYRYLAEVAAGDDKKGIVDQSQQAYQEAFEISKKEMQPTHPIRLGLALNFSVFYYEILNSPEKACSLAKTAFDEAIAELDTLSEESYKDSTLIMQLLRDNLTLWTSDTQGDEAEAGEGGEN
row,Structure (SMILES),IC50 [nM]
1,"Cc1ccc(NC(=O)c2ccnc(C(C)(F)F)c2)cc1-c1cc2c(cc1F)C[C@@](F)(CO)[C@@H]1COCCN21 [Example 481, N-(3-((4aS,5S)-5,8-difluoro-5-(hydroxymethyl)-1,2,4,4a,5,6-hexahydro-[1,4]oxazino[4,3-a]quinolin-9-yl)-4-methylphenyl)-2-(1,1-difluoroethyl)iso-nicotinamide]",1.1
2,"Cc1ccc(NC(=O)c2cnnc(C(F)(F)F)c2)cc1-c1cc2c(cc1F)C[C@@](F)(CO)[C@@H]1COCCN21 [Example 482, N-(3-((4aS,5S)-5,8-difluoro-5-(hydroxymethyl)-1,2,4,4a,5,6-hexahydro-[1,4]oxazino[4,3-a]quinolin-9-yl)-4-methylphenyl)-6-(trifluoromethyl) pyridazine-4-carboxamide]",0.3
3,"Cc1ccc(NC(=O)c2ccnc(C(C)(C)F)c2)cc1-c1cc2c(cc1F)C[C@@](F)(CO)[C@@H]1COCCN21 [Example 483, N-(3-((4aS,5S)-5,8-difluoro-5-(hydroxymethyl)-1,2,4,4a,5,6-hexahydro-[1,4]oxazino[4,3-a]quinolin-9-yl)-4-methylphenyl)-2-(2-fluoropropan-2-yl)isonicotinamide]",1
4,"Cc1ncc(NC(=O)c2cccc(C(F)(F)F)c2)cc1-c1cc2c(cc1F)C[C@@](F)(CO)[C@@H]1COCCN21 [Example 484, N-(5-((4aS,5S)-5,8-difluoro-5-(hydroxymethyl)-1,2,4,4a,5,6-hexahydro-[1,4]oxazino[4,3-a]quinolin-9-yl)-6-methylpyridin-3-yl)-3-(trifluoromethyl) benzamide]",4.1
5,"Cc1ccc(NC(=O)c2ccnc(C(F)(F)F)c2)cc1-c1cc2c(cc1F)C[C@@](F)(CO)[C@@H]1COCCN21 [Example 485, N-(3-((4aS,5S)-5,8-difluoro-5-(hydroxymethyl)-1,2,4,4a,5,6-hexahydro-[1,4]oxazino[4,3-a]quinolin-9-yl)-4-methylphenyl)-2-(trifluoromethyl) isonicotinamide]",0.3
6,"Cc1ccc(NC(=O)c2cncc(C(F)(F)F)c2)cc1-c1cc2c(cc1F)C[C@@](F)(CO)[C@@H]1COCCN21 [Example 486, N-(3-((4aS,5S)-5,8-difluoro-5-(hydroxymethyl)-1,2,4,4a,5,6-hexahydro-[1,4]oxazino[4,3-a]quinolin-9-yl)-4-methylphenyl)-5-(trifluoromethyl) nicotinamide]",1.6
7,"Cc1ccc(NC(=O)c2cncc(C(F)(F)F)c2)cc1-c1cc2c(cc1F)C[C@](F)(CO)[C@@H]1COCCN21 [Example 487, N-(3-((4aS,5R)-5,8-difluoro-5-(hydroxymethyl)-1,2,4,4a,5,6-hexahydro-[1,4]oxazino[4,3-a]quinolin-9-yl)-4-methylphenyl)-5-(trifluoromethyl) nicotinamide]",0.7
8,"Cc1ccc(NC(=O)c2cncc(C(F)(F)F)c2)cc1-c1cc2c(cc1F)C[C@](F)(CO)[C@H]1COCCN21 [Example 488, N-(3-((4aR,5R)-5,8-difluoro-5-(hydroxymethyl)-1,2,4,4a,5,6-hexahydro-[1,4]oxazino[4,3-a]quinolin-9-yl)-4-methylphenyl)-5-(trifluoromethyl) nicotinamide]",0.3
9,"Cc1ccc(NC(=O)c2cncc(C(F)(F)F)c2)cc1-c1cc2c(cc1F)C[C@@](F)(CO)[C@H]1COCCN21 [Example 489, N-(3-((4aR,5S)-5,8-difluoro-5-(hydroxymethyl)-1,2,4,4a,5,6-hexahydro-[1,4]oxazino[4,3-a]quinolin-9-yl)-4-methylphenyl)-5-(trifluoromethyl) nicotinamide]",0.4
10,"Cc1ncc(NC(=O)c2cccc(C(F)(F)F)c2)cc1-c1cnc2c(c1)N1CCOC[C@H]1[C@@H](CO)C2 [Example 490, N-(5-((4aR,5S)-5-(hydroxymethyl)-1,2,4,4a,5,6-hexahydro-[1,4]oxazino[4,3-a][1,5]naphthyridin-9-yl)-6-methylpyridin-3-yl)-3 - (trifluoro-methyl)benzamide]",0.5
11,"Cc1ccc(NC(=O)c2ccnc(C(C)(F)F)c2)cc1-c1cnc2c(c1)N1CCOC[C@H]1[C@@H](CO)C2 [Example 492, 2-(1,1-difluoroethyl)-N-(3-((4aR,5S)-5-(hydroxymethyl)-1,2,4,4a,5,6-hexahydro-[1,4]oxazino[4,3-a][1,5]naphthyridin-9-yl)-4-methylphenyl)iso-nicotinamide]",0.2
12,"Cc1ncc(NC(=O)c2cccc(C(F)(F)F)c2)cc1-c1cnc2c(c1)N1CCOC[C@@H]1[C@H](CO)C2 [Example 493, N-(5-((4aS,5R)-5-(hydroxymethyl)-1,2,4,4a,5,6-hexahydro-[1,4]oxazino[4,3-a][1,5]naphthyridin-9-yl)-6-methylpyridin-3-yl)-3-(trifluorometh-yl)benzamide]",0.1
13,"Cc1ccc(NC(=O)c2ccnc(C(F)(F)F)c2)cc1-c1cnc2c(c1)N1CCOC[C@@H]1[C@H](CO)C2 [Example 494, N-(3-((4aS,5R)-5-(hydroxymethyl)-1,2,4,4a,5,6-hexahydro-[1,4]oxazino[4,3-a][1,5]naphthyridin-9-yl)-4-methyphenyl)-2-(trifluoromethyl)iso-nicotinamide]",0.1
14,"Cc1ccc(NC(=O)c2ccnc(C(C)(F)F)c2)cc1-c1cnc2c(c1)N1CCOC[C@@H]1[C@H](CO)C2 [Example 495, 2-(1,1-difluoroethyl)-N-(3-((4aS,5R)-5-(hydroxymethyl)-1,2,4,4a,5,6-hexahydro-[1,4]oxazino[4,3-a][1,5]naphthyridin-9-yl)-4-methylphenyl)iso-nicotinamide]",0.1
15,"CCN1C[C@H]2COCCN2c2cc(-c3cc(NC(=O)c4ccnc(C(F)(F)F)c4)ccc3C)cnc2C1=O [Example 496, (S)-N-(3-(6-ethyl-7-oxo-1,2,4a,5,6,7-hexahydro-4H-[1,4]oxazino[4,3-a]pyrido[2,3-f][1,4]diazepin-10-yl)-4-methylphenyl)-2-(trifluoromethyl)iso-nicotinamide]",0.7
16,"CCN1C[C@H]2COCCN2c2cc(-c3cc(NC(=O)c4cccc(C(F)(F)F)c4)cnc3C)cnc2C1=O [Example 497, (S)-N-(5-(6-ethyl-7-oxo-1,2,4a,5,6,7-hexahydro-4H-[1,4]oxazino[4,3-a]pyrido[2,3-f][1,4]diazepin-10-yl)-6-methylpyridin-3-yl)-3-(trifluoromethyl) benzamide]",1.4
17,"CCN1C[C@H]2COCCN2c2cc(-c3cc(NC(=O)c4ccnc(C(C)(F)F)c4)ccc3C)cnc2C1=O [Example 498, (S)-2-(1,1-difluoroethyl)-N-(3-(6-ethyl-7-oxo-1,2,4a,5,6,7-hexahydro-4H-[1,4]oxazino[4,3-a]pyrido[2,3-f][1,4]diazepin-10-yl)-4-methylphenyl)iso-nicotinamide]",0.6
18,"CCN1C[C@H]2COCCN2c2cc(-c3cc(NC(=O)c4ccnc(C(F)(F)F)c4F)ccc3C)cnc2C1=O [Example 499, (S)-N-(3-(6-ethyl-7-oxo-1,2,4a,5,6,7-hexahydro-4H-[1,4]oxazino[4,3-a]pyrido[2,3-f][1,4]diazepin-10-yl)-4-methyplhenyl)-3-fluoro-2-(trifluoromethyl)iso-nicotinamide]",0.4
19,"CCN1C[C@@H]2COCCN2c2cc(-c3cc(NC(=O)c4ccnc(C(F)(F)F)c4)ccc3C)cnc2C1=O [Example 500, (R)-N-(3-(6-ethyl-7-oxo-1,2,4a,5,6,7-hexahydro-4H-[1,4]oxazino[4,3-a]pyrido[2,3-f][1,4]diazepin-10-yl)-4-methylphenyl)-2-(trifluoromethyl)iso-nicotinamide]",0.1
20,"CCN1C[C@@H]2COCCN2c2cc(-c3cc(NC(=O)c4cccc(C(F)(F)F)c4)cnc3C)cnc2C1=O [Example 501, (R)-N-(5-(6-ethyl-7-oxo-1,2,4a,5,6,7-hexahydro-4H-[1,4]oxazino[4,3-a]pyrido[2,3-f][1,4]diazepin-10-yl)-6-methypyridin-3-yl)-3-(trifluoro-methyl)benzamide]",0.2
21,"CCN1C[C@@H]2COCCN2c2cc(-c3cc(NC(=O)c4ccnc(C(C)(F)F)c4)ccc3C)cnc2C1=O [Example 502, (R)-2-(1,1-difluoroethyl)-N-(3-(6-ethyl-7-oxo-1,2,4a,5,6,7-hexahydro-4H-[1,4]oxazino[4,3-a]pyrido[2,3-f][1,4]diazepin-10-yl)-4-methylphenyl)iso-nicotinamide]",0.2
22,CCN1C[C@@H]2COCCN2c2cc(-c3cc(NC(=O)c4ccnc(C(F)(F)F)c4F)ccc3C)cnc2C1=O [Example 503],0.1
23,"CCN1C[C@@H]2CCOCCN2c2cc(-c3cc(NC(=O)c4ccnc(C(F)(F)F)c4)ccc3C)cnc2C1=O [Example 504, (S)-N-(3-(7-ethyl-8-oxo-1,2,4,5,5a,6,7,8-octahydropyrido[2′, 3′:6,7][1,4]diazepino [1,2-d][1,4]oxazepin-11-yl)-4-methylphenyl)-2-(trifluoromethyl)iso-nicotinamide]",15.4
24,"CCN1C[C@H]2CCOCCN2c2cc(-c3cc(NC(=O)c4ccnc(C(F)(F)F)c4)ccc3C)cnc2C1=O [Example 505, (R)-N-(3-(7-ethyl-8-oxo-1,2,4,5,5a,6,7,8-octahydropyrido[2′, 3′:6,7][1,4]diazepino [1,2-d][1,4]oxazepin-11-yl)-4-methylphenyl)-2-(trifluoromethyl)iso-nicotinamide]",3.6
25,"CCN1C[C@@H]2CCOCCN2c2cc(-c3cc(NC(=O)c4cccc(C(F)(F)F)c4)cnc3C)cnc2C1=O [Example 506, (S)-N-(5-(7-ethyl-8-oxo-1,2,4,5,5a,6,7,8-octahydropyrido[2′, 3′:6,7][1,4]diazepino [1,2-d][1,4]oxazepin-11-yl)-6-methylpyridin-3-yl)-3-(trifluorometh-yl)benzamide]",80.3
26,"CCN1C[C@H]2CCOCCN2c2cc(-c3cc(NC(=O)c4cccc(C(F)(F)F)c4)cnc3C)cnc2C1=O [Example 507, (R)-N-(5-(7-ethyl-8-oxo-1,2,4,5,5a,6,7,8-octahydropyrido[2′, 3′:6,7][1,4]diazepino [1,2-d][1,4]oxazepin-11-yl)-6-methylpyridin-3-yl)-3-(trifluorometh-yl)benzamide]",26.9
